Data as given in US11780830B2, “Triazolone derivatives or salts thereof and pharmaceutical compositions comprising the same” (YUHAN CORPORATION, priority 2018, dated 2023).
Structures can show the parent of a compound that is named as a salt.

Experiments:
Type in all cases: biochemical
[1] = biological target: T1, recombinant human MAO-A (monoamine oxidase-A) (Homo sapiens, UniProt P21397); experiment: Activity on recombinant human MAO-A, method similar to the VAP-1 assay; settings: substrate 0.5 mM tyramine; read-out: Inhibitory Activity (IC50, nM) MAO-A
T1 construct: purchased Sigma-Aldrich
T1 sequence (P21397 1-527): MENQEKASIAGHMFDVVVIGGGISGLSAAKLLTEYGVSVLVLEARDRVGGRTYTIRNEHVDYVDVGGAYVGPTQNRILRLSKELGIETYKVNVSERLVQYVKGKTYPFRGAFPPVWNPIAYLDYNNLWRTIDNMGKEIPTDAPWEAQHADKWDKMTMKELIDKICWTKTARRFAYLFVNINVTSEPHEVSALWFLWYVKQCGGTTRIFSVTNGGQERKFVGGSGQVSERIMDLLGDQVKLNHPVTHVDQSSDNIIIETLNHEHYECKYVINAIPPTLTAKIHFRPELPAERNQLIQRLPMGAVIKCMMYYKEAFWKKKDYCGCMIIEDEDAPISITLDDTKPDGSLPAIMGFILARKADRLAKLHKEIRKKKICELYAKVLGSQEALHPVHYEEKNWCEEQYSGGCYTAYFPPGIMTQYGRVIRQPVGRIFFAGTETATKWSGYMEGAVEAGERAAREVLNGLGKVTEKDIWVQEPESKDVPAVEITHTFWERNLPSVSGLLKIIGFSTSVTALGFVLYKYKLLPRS
Procedure, shortened: (§1)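 Fluorescence (544/590 nm) of resorufin formed from Amplex Red by HRP and enzyme-generated H2O2 was followed over 1-2 h. Substrates were 0.5 mM tyramine for MAO-A and 1 mM benzylamine for MAO-B; compounds were preincubated with enzyme for 30 min at 37° C. IC50 came from four-parameter logistic fitting of signal-rate inhibition.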

recombinant human VAP-1 = biological target: T2, recombinant human VAP-1 (Homo sapiens, UniProt Q16853); experiment: Activity on recombinant human VAP-1, HRP-coupled Amplex Red hydrogen peroxide assay; settings: substrate 1 mM benzylamine; compound incubated with enzyme at 37° C. for 30 minutes; pH 7.4; read-out: Inhibitory Activity (IC50, nM) human VAP-1
T2 construct: purchased R&D systems
T2 sequence (Q16853 1-763): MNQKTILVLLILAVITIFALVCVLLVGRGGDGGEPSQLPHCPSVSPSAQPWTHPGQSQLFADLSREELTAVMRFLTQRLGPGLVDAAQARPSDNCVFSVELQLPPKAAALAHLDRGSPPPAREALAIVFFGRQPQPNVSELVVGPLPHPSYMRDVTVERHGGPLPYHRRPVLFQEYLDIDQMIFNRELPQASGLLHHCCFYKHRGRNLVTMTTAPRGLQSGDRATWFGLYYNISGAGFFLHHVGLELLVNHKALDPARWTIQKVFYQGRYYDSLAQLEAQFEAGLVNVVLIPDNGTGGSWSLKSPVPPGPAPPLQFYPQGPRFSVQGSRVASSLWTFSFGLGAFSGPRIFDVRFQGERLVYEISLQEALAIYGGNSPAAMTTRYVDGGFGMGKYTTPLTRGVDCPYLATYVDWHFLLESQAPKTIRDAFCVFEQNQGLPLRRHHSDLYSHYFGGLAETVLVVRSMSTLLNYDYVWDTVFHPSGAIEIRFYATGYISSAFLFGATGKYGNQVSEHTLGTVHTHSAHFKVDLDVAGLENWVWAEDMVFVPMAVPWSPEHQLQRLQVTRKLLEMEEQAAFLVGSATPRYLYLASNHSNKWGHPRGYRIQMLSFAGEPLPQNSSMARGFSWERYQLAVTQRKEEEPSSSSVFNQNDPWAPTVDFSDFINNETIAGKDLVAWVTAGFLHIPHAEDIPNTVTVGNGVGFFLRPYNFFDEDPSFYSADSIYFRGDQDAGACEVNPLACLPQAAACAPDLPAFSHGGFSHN
Procedure, shortened: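 Fluorescence of resorufin formed from H2O2 (ex 544 nm, em 590 nm) was tracked for 1-2 h after adding 1 mM benzylamine, 200 uM Amplex Red and 1 U/mL HRP to enzyme pretreated with compound for 30 min at 37 °C. IC50 values derive from four-variable logistic fits.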

[2] = biological target: T3, recombinant human MAO-B (monoamine oxidase-B) (Homo sapiens, UniProt P27338); experiment: Activity on recombinant human MAO-B, method similar to the VAP-1 assay; settings: substrate 1 mM benzylamine; read-out: Inhibitory Activity (IC50, nM) MAO-B
T3 construct: purchased Sigma-Aldrich
T3 sequence (P27338 1-520): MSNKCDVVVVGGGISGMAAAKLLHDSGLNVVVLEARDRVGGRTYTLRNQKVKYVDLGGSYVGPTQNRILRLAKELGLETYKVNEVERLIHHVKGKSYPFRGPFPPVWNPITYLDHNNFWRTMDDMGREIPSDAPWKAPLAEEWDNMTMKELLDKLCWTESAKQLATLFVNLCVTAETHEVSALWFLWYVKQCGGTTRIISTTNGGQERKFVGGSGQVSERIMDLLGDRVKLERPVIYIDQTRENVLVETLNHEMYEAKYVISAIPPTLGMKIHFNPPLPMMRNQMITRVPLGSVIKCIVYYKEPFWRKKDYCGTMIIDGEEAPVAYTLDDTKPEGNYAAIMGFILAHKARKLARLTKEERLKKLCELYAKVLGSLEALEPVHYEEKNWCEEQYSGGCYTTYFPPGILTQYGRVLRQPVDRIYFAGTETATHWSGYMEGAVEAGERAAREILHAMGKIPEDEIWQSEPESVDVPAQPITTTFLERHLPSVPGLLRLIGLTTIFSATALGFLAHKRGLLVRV
Procedure, shortened: as §1

[3] = biological target: T4, recombinant human DAO (diamine oxidase) (Homo sapiens, UniProt P19801); experiment: Activity on recombinant human DAO, method similar to the VAP-1 assay; settings: substrate 1 mM putrescine; read-out: Inhibitory Activity (IC50, nM) DAO
T4 construct: purchased R&D systems
T4 sequence (P19801 20-751): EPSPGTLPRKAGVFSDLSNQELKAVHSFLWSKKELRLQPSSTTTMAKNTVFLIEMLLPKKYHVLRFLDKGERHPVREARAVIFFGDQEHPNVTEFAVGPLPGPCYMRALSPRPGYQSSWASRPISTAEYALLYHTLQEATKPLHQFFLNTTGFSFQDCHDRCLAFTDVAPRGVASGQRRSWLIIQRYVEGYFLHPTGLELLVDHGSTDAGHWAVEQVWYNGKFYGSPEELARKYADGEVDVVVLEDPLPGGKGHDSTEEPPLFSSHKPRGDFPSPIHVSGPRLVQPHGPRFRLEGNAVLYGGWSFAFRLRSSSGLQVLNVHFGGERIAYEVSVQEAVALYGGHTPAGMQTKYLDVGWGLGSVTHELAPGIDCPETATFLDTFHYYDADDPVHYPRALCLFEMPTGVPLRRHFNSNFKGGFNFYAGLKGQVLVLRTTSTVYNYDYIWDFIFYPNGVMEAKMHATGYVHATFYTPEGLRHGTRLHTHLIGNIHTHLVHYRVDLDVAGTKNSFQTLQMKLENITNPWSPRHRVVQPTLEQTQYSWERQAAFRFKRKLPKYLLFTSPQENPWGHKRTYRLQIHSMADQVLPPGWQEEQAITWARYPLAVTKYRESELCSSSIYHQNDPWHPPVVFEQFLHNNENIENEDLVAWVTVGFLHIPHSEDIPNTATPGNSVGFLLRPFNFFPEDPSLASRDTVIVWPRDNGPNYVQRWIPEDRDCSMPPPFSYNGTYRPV
Procedure, shortened: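 Inhibition of recombinant human diamine oxidase (DAO, R&D systems) was assessed by the same approach as the VAP-1 assay, using 1 mM putrescine as substrate. Hydrogen peroxide formed was detected through an HRP-coupled Amplex Red reaction yielding fluorescent resorufin, read at 544 nm excitation and 590 nm emission. IC50 values came from four-parameter logistic fitting in GraphPad Prism.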

SMILES	IC50 [1] [nM]	IC50 (recombinant human VAP-1) [nM]	IC50 [2] [nM]	IC50 [3] [nM]
NC/C(=C\F)Cn1ncn(Cc2ccc(-c3ccc4oc(=O)[nH]c4c3)s2)c1=O [Example 72, 5-[5-(1-[(2E)-2-(aminomethyl)-3-fluoroprop-2-en-1-yl]-5-oxo-1,5-dihydro-4H-1,2,4-triazol-4-ylmethyl)thiophen-2-yl]-1,3-benzooxazol-2(3H)-one hydrochloride]	≥ 100000	0.4	< 10	230
CN1C(=O)Cc2cc(-c3ccc(Cn4cnn(C/C(=C/F)CN)c4=O)s3)cnc21 [Example 73, 5-[5-(1-[(2E)-2-(aminomethyl)-3-fluoroprop-2-en-1-yl]-5-oxo-1,5-dihydro-4H-1,2,4-triazol-4-ylmethyl)thiophen-2-yl]-1-methyl-1,3-dihydro-2H-pyrrolo[2,3-b]pyridin-2-one hydrochloride]	> 100000	0.2	6100	93
NC/C(=C\F)Cn1ncn(Cc2ccc(-c3ccc4c(c3)C(=O)NCC4)s2)c1=O [Example 74, 7-[5-(1-[(2E)-2-(aminomethyl)-3-fluoroprop-2-en-1-yl]-5-oxo-1,5-dihydro-4H-1,2,4-triazol-4-ylmethyl)thiophen-2-yl]-3,4-dihydroisoquinolin-1(2H)-one hydrochloride]	> 100000	0.3	> 10000	620
NC/C(=C\F)Cn1ncn(Cc2ccc(-c3ccc4c(c3)CCC(=O)N4)s2)c1=O [Example 75, 6-[5-(1-[(2E)-2-(aminomethyl)-3-fluoroprop-2-en-1-yl]-5-oxo-1,5-dihydro-4H-1,2,4-triazol-4-ylmethyl)thiophen-2-yl]-3,4-dihydroquinolin-2(1H)-one hydrochloride]	> 100000	0.3	2600	950
Cc1cc(-c2ccc(Cn3cnn(C/C(=C/F)CN)c3=O)s2)cc2c1NC(=O)CC2 [Example 77, 6-[5-(1-[(2E)-2-(aminomethyl)-3-fluoroprop-2-en-1-yl]-5-oxo-1,5-dihydro-4H-1,2,4-triazol-4-ylmethyl)thiophen-2-yl]-8-methyl-3,4-dihydroquinolin-2(1H)-one hydrochloride]	> 100000	0.2	1300	460

The next lines start with the values.

IC50 [1] [nM]	IC50 (recombinant human VAP-1) [nM]	IC50 [2] [nM]	IC50 [3] [nM]	SMILES
> 100000	0.2	4800	630	Cc1cc(-c2ccc(Cn3cnn(C/C(=C/F)CN)c3=O)s2)cc2ccc(=O)[nH]c12 [Example 78, 6-[5-[[1-[(E)-2-(aminomethyl)-3-fluoro-allyl]-5-oxo-1,2,4-triazol-4-yl]methyl]-2-thienyl]-8-methyl-1H-quinolin-2-one]
> 100000	0.1	1900	210	CN1C(=O)CCc2cc(-c3ccc(Cn4cnn(C/C(=C/F)CN)c4=O)s3)ccc21 [Example 79, 6-[5-(1-[(2E)-2-(aminomethyl)-3-fluoroprop-2-en-1-yl]-5-oxo-1,5-dihydro-4H-1,2,4-triazol-4-ylmethyl)thiophen-2-yl]-1-methyl-3,4-dihydroquinolin-2(1H)-one hydrochloride]
> 100000	0.2	6300	380	NC/C(=C\F)Cn1ncn(Cc2ccc(-c3cc(F)c4c(c3)CCC(=O)N4)s2)c1=O [Example 80, 6-[5-[[1-[(E)-2-(aminomethyl)-3-fluoro-allyl]-5-oxo-1,2,4-triazol-4-yl]methyl]-2-thienyl]-8-fluoro-3,4-dihydro-1H-quinolin-2-one]
> 100000	0.18	430	68	NC/C(=C\F)Cn1ncn(Cc2ccc(-c3cc4c(c(C(F)(F)F)c3)NC(=O)CC4)s2)c1=O [Example 81, 6-[5-[[1-[(E)-2-(aminomethyl)-3-fluoro-allyl]-5-oxo-1,2,4-triazol-4-yl]methyl]-2-thienyl]-8-(trifluoromethyl)-3,4-dihydro-1H-quinolin-2-one]
> 100000	0.1	6300	300	NC/C(=C\F)Cn1ncn(Cc2ccc(-c3cc(F)c4[nH]c(=O)ccc4c3)s2)c1=O [Example 82, 6-[5-(1-[(2E)-2-(aminomethyl)-3-fluoroprop-2-en-1-yl]-5-oxo-1,5-dihydro-4H-1,2,4-triazol-4-ylmethyl)thiophen-2-yl]-8-fluoroquinolin-2(1H)-one hydrochloride]
36000	0.5	650	280	Cc1cc(-c2ccc(Cn3cnn(C/C(=C/F)CN)c3=O)s2)cc2c(C(F)(F)F)cc(=O)[nH]c12 [Example 83, 6-[5-[[1-[(E)-2-(aminomethyl)-3-fluoro-allyl]-5-oxo-1,2,4-triazol-4-yl]methyl]-2-thienyl]-8-methyl-4-(trifluoromethyl)-1H-quinolin-2-one]
